Laboratory results from patent publication US20260022100A1, “NAV1.8 INHIBITOR” (Wuhan Humanwell Innovative Drug Research and Development …, priority 2022, published 2026).

Assays:
[1] = Pharmacokinetic assay in mice; assay type: in vivo; conditions: male, ICR, mouse, plasma, oral intragastric administration, 10 mg/kg
Description: Pharmacokinetic assay in mice was performed, wherein the mice used were 3 male ICR mice and fasted overnight. The mice were orally intragastrically dosed with the medicament (10 mg/kg). Blood was collected before administration and at 15 min, 30 min and 1 h, 2 h, 4 h, 6 h, 8 h, and 24 h after administration. Blood samples were centrifuged at 8000 rpm for 6 min at 4° C., and plasma was collected and stored at −20° C. The plasma at each time point was taken, and 3-5 times its amount of an acetonitrile solution containing an internal standard was added for mixing. The mixture was vortexed for 1 min and then centrifuged at 13000 rpm at 4° C. for 10 min. The supernatant was taken, and 3 times its amount of water was added for mixing. A proper amount of the resulting mixture was taken for LC-MS/MS analysis. The major pharmacokinetic parameters were analyzed using a non-compartmental model in the WinNonlin 7.0 software.

[2] = target: Nav1.8 ion channel (Homo sapiens (Human), UniProt Q9Y5Y9); assay: Inhibitory activity on Nav1.8 ion channel, whole-cell patch-clamp on HEK293/Nav1.8; assay type: cell-based; conditions: HEK293/Nav1.8, whole-cell patch clamp, holding -80 mV, 1 μM TTX
Description: Reagents were purchased from Sigma (St. Louis, MO) except NaOH and KOH for acid-base titration. The final concentrations of the test compounds were all prepared on the day of the test and then dissolved in an extracellular fluid. The extracellular fluid (mM) was NaCl, 137; KCl, 4; CaCl2), 1.8; MgCl2, 1; HEPES, 10; glucose 10; and pH 7.4 (NaOH titration). All test and control compound solutions contained 1 μM TTX. The intracellular fluid (mM) was: aspartic acid, 140; magnesium chloride, 2; ethylene glycol tetraacetic acid (EGTA), 11; and N-2-hydroxyethylpiperazine-N′-2-ethanesulfonic acid (HEPES), 10. The pH was adjusted to 7.4 with cesium hydroxide.
The test compounds were dissolved in dimethylsulfoxide (DMSO) at a concentration of 9 mM. On the day of the test, the compounds were then dissolved in the extracellular fluid and prepared into the required concentration.
The cells were transferred to a perfusion chamber and perfusion was carried out using the extracellular fluid. The intracellular fluid was thawed on the day of the experiment. The electrodes were produced by pulling with PC-10 (Narishige, Japan). Whole-cell patch-clamp recording was carried out. Noise was filtered at one fifth of the sampling frequency. The intracellular fluid with ¼ length of the electrode tube was added into the electrode, and the electrode was installed on a probe. The required Protocol was set, the interface was adjusted to Membrane test, and Stage was adjusted to Bath. A positive pressure was applied in the electrode. The tip of the electrode was contacted with the cell. The three-way valve of the air extractor was adjusted to a three-way state. A negative pressure was then applied to the electrode, so that the electrode and the cell formed a high-resistance seal. Stage was adjusted to Patch, and leak was controlled within −200 pA. A negative pressure was successively applied, so that cell membranes were broken, and a current path was formed. Perfusion was carried out by opening the suction filtration device and the extracellular fluid valve. The cell current was observed, and administration was started when the cell current was stable (at least 3 sweep current curves were overlapped). Administration was performed from low concentration to high concentration. The administration time of each concentration was not less than 2 min, and when the current was stable, the concentration was changed for administration.
For administration of the test samples, perfusion was carried out using a perfusion system utilizing the self gravity. […] During the period, the CV % of all peak current amplitudes should be less than 10% to exclude up and down fluctuations of the initial current. The average of the peak current amplitudes recorded for the last 10 times during the initial recording served as the current peak of the negative control. After the initial current was stable, the test samples were dosed starting from a low concentration until the 10 recorded peak currents were again stable or the peak currents were “constant” after and before administration after continuous administration for 5 min. We defined the following two cases as “stable” or “constant”: 1) if the absolute average of the peak current for 10 consecutive scans exceeded 200 pA and the CV value was less than 10%, 2) or the average of the peak current for 10 consecutive scans was between 200 pA and 50 pA and the CV value was less than 30%. The next detection of higher concentration was then given.
The average of the peak current of the last 10 scans of each concentration was taken as the peak current for that concentration for data analysis. If the stable state was not reached within 5 min, the peak current average of the last 10 scans at that time was used for data analysis as the peak current for that concentration. At the same time, the cells were discarded and no longer used for detection of higher concentration. At least two cells were tested per concentration of the compounds. […]

[3] = system: spinal nerve-ligated rats; assay: Spinal nerve ligation neuropathic pain model in rats (Von-Frey mechanical pain threshold); assay type: in vivo, male SD rat; conditions: SNL rats
Text: A male SD rat weighing 180-220 g was placed on an operating table in a prone position after anesthesia. An incision was made along the spinal column near the hip bone of the animal, and the fascia and muscle were separated. The L5 transverse process was carefully snapped off with a tweezer. The L5 nerve was separated with a glass needle, and the L5 nerve was ligated with 5-0 ligature. The muscle and the skin were sutured and disinfected with iodophor. After 14 days of modeling, the animals were divided into different groups, 10 animals each group. Different compounds were separately orally administered intragastrically. Mechanical pain thresholds of the animals were detected with Von-Frey fiber filaments at different time points after administration. The specific administration dose and detection time are detailed in Table 3 below.
The mechanical pain threshold detection method: The pelma of the hind limb to be tested of the test animal was continuously stimulated using the Von-Frey fiber filament to bend the fiber filament, and the foot shrinking reaction of the animal was observed. The tested animals were stimulated one by one according to the sequence of the gram number of the fiber filaments from small to large, and each gram number of the fiber filament was continuously used for stimulation for 5 times. If less than 3 positive reactions were present, the procedure described above was repeated using a larger grade of fiber filament, and if 3 or more positive reactions were present for the first time in the test, the fiber filament was the pain threshold for that animal (3 tests per animal for the average). Fiber filament gram number: 0.6, 1.0, 1.4, 2.0, 4.0, 6.0, 8.0, 10.0, and 15.0; the cut value was 15.0 g.

| Structure (SMILES) | AUC(0-t) [1] [ng·h/mL] | Cmax [1] [ng/mL] | Tmax [1] [h] | half-life [1] [h] | IC50 [2] [nM] | Mechanical pain threshold (Mean ± SD), base value before modeling ([3]; 100 mpk group, baseline before modeling) [g] | Mechanical pain threshold (Mean ± SD), 3 h after administration ([3]; 100 mpk oral intragastric, 3 h) [g] | Mechanical pain threshold (Mean ± SD), 6 h after administration ([3]; 100 mpk oral intragastric, 6 h) [g] |
| --- | --- | --- | --- | --- | --- | --- | --- | --- |
| O=C(Nc1ccc[n+]([O-])c1)c1cc(Cl)c(C(F)(F)F)cc1Oc1ccc(SC(F)(F)F)cc1 [Compound I-15] | 539000 | 30000 | 8 | 34 |  |  |  |  |
| Cc1cc(F)ccc1Oc1cc(C(F)(F)F)c(Cl)cc1C(=O)Nc1cnc[n+]([O-])c1 [Compound I-31, 5-(5-chloro-2-(4-fluoro-2-methylphenoxy)-4-(trifluoromethyl)benzamido)pyrimidine 1-oxide] |  |  |  |  | 9.75 |  |  |  |
| O=C(Nc1ccc[n+]([O-])c1)c1cc(Cl)c(C(F)(F)F)cc1Oc1ccc(F)c2c1OC(F)(F)O2 [Compound I-23, 3-(5-chloro-2-((2,2,7-trifluorobenzo[d][1,3]dioxol-4-yl)oxy)-4-(trifluoromethyl)benzamido)pyridine 1-oxide] | 37900 | 3450 | 1 | 2.53 | 2.9 |  |  |  |
| [2H]C([2H])([2H])Oc1cc(F)c(F)cc1Oc1cc(C(F)(F)F)c(Cl)c(F)c1C(=O)Nc1cnc[n+]([O-])c1 [Compound I-28, 5-(3-chloro-6-(4,5-difluoro-2-(methoxy-d3)phenoxy)-2-fluoro-4-(trifluoromethyl)benzamido)pyrimidine 1-oxide] |  |  |  |  | 1.3 |  |  |  |
| O=C(Nc1ccc[n+]([O-])c1)c1cc(Cl)c(Cl)cc1Oc1ccc(F)c2c1OC(F)(F)O2 [Compound I-22, 3-(4,5-Dichloro-2-((2,2,7-trifluorobenzo[d][1,3]dioxol-4-yl)oxy)benzamido)-pyridine 1-oxide] | 12700 | 3090 | 1 | 2.88 | 8.15 |  |  |  |
| O=C(Nc1cnc[n+]([O-])c1)c1c(Oc2ccc(OC(F)(F)F)cc2)ccc(C(F)(F)F)c1F [Compound I-20, 5-(2-fluoro-6-(4-(trifluoromethoxy)phenoxy)-3-(trifluoromethyl)benzamido)pyrimidine 1-oxide] | 96200 | 8010 | 4 | 2.87 |  |  |  |  |
| O=C(Nc1ccc[n+]([O-])c1)c1c(Oc2ccc(F)c3c2OC(F)(F)O3)cc(Cl)c(Cl)c1F [Compound I-32, 3-(3,4-Dichloro-2-fluoro-6-((2,2,7-trifluorobenzo[d][1,3]dioxol-4-yl)oxy)benzamido)pyridine-1-oxide] |  |  |  |  | 0.71 |  |  |  |
| Cc1cc(F)ccc1Oc1cc(C(F)(F)F)c(Cl)c(F)c1C(=O)Nc1cnc[n+]([O-])c1 [Compound I-34, 5-(3-chloro-2-fluoro-6-(4-fluoro-2-methylphenoxy)-4-(trifluoromethyl)benzamido)pyrimidine 1-oxide] |  |  |  |  | 1.4 |  |  |  |
| O=C(Nc1ccc[n+]([O-])c1)c1c(Oc2ccc(F)c3c2OC(F)(F)O3)cc(C(F)(F)F)c(Cl)c1F [Compound I-11, 3-(3-Chloro-2-fluoro-6-((2,2,7-trifluorobenzo[d][1,3]dioxol-4-yl)oxy)-4-trifluoromethyl-benzamido)pyridine 1-oxide] | 9070 | 2240 | 1 | 2.18 | 0.64 | 13.0 ± 2.8 | 13.6 ± 2.0 | 12.1 ± 2.5 |
| COc1cc(OC(F)(F)F)ccc1Oc1cc(Cl)c(Cl)cc1C(=O)Nc1cnc[n+]([O-])c1 [Compound I-18, 5-(4,5-dichloro-2-(2-methoxy-4-(trifluoromethoxy)phenoxy)benzamido)pyrimidine 1-oxide] | 3340 | 1390 | 0.5 | 1.22 | 2.4 |  |  |  |
| O=C(Nc1cnc[n+]([O-])c1)c1c(Oc2ccc(OC(F)F)cc2)cc(C(F)(F)F)c(Cl)c1F [Compound I-25, 5-(3-Chloro-6-(4-(difluoromethoxy)phenoxy)-2-fluoro-4-(trifluoromethyl)benzamido)pyrimidine 1-oxide] |  |  |  |  | 2.9 |  |  |  |
| O=C(Nc1cnc[n+]([O-])c1)c1c(Oc2ccc(OC(F)(F)F)cc2)cc(Cl)c(Cl)c1F [Compound I-19, 5-(3,4-Dichloro-2-fluoro-6-(4-(trifluoromethoxy)phenoxy)benzamido)pyrimidine 1-oxide] | 19200 | 8880 | 0.5 | 2 | 0.98 |  |  |  |
| O=C(Nc1cnc[n+]([O-])c1)c1cc(Cl)c(C(F)(F)F)cc1Oc1ccc(OC(F)(F)F)cc1 [Compound I-2, 5-(5-Chloro-2-(4-(trifluoromethoxy)phenoxy)-4-(trifluoromethyl)benzamido)pyrimidine-1-oxide] |  |  |  |  | 11 |  |  |  |
| [2H]C([2H])([2H])Oc1cc(OC(F)(F)F)ccc1Oc1cc(Cl)c(Cl)cc1C(=O)Nc1cnc[n+]([O-])c1 [Compound I-24, 5-(4,5-dichloro-2-(2-(methoxy-d3)-4-(trifluoromethoxy)phenoxy)benzamido)pyrimidine 1-oxide] | 4560 | 1870 | 0.5 | 1.78 | 2.2 |  |  |  |
| [2H]C([2H])([2H])Oc1cc(F)ccc1Oc1cc(Cl)c(Cl)cc1C(=O)Nc1cnc[n+]([O-])c1 [Compound I-21, 5-(4,5-dichloro-2-(4-fluoro-2-(trideuteromethoxy)phenoxy)benzamido)pyrimidine 1-oxide] | 2490 | 1400 | 0.5 | 1.32 |  |  |  |  |
